From the supplement of paper PMC10307832

Legend:
Test in all cases: relative viability (nuclei count vs DMSO), 5 days (fraction); higher = more cells survive
[1] = compound: CN(C)CC1=CC(=CC=C1)N=C(C2=CC=CC=C2)C3=C(NC4=C3C=CC(=C4)C(=O)N(C)C)O + CCNC(=O)c1noc(-c2cc(C(C)C)c(O)cc2O)c1-c1ccc(CN2CCOCC2)cc1 [Luminespib] (partner 0.01 µM)
Method in brief: (§1)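 For relative viability, nuclei counts in treated wells were divided by those in vehicle wells. Lung cancer cell lines had been pin-tool dosed in 1536-well plates the day after seeding and cultured for 5 days, then fixed and stained in one step (final 0.05% Triton X-100, 1% formaldehyde, 1 ug/ml Hoechst) and imaged at 4×. Doses were one drug alone or a fixed anchor-drug dose plus five library-drug doses (not always all listed) in √10 steps, and values are duplicate-plate medians.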

[2] = compound: CN(C)CC1=CC(=CC=C1)N=C(C2=CC=CC=C2)C3=C(NC4=C3C=CC(=C4)C(=O)N(C)C)O + CS(=O)(=O)CCNCc1ccc(-c2ccc3ncnc(Nc4ccc(OCc5cccc(F)c5)c(Cl)c4)c3c2)o1 [Lapatinib] (partner 2 µM)
Method in brief: as §1

[3] = compound: CN(C)CC1=CC(=CC=C1)N=C(C2=CC=CC=C2)C3=C(NC4=C3C=CC(=C4)C(=O)N(C)C)O + Nc1ncn([C@H]2C[C@H](O)[C@@H](CO)O2)c(=O)n1 [Decitabine] (partner 2 µM)
Method in brief: as §1

[4] = compound: CN(C)CC1=CC(=CC=C1)N=C(C2=CC=CC=C2)C3=C(NC4=C3C=CC(=C4)C(=O)N(C)C)O + O=C(c1cc(Cc2n[nH]c(=O)c3ccccc23)ccc1F)N1CCN(C(=O)C2CC2)CC1 [Olaparib] (partner 8 µM)
Method in brief: as §1

Cell Line: NCI-H520
- relative viability ([1]; first compound 0.08 µM): 0.218
- relative viability ([1]; first compound 0.253 µM): 0.197
- relative viability ([1]; first compound 0.8 µM): 0.239
- relative viability ([1]; first compound 2.53 µM): 0.221
- relative viability ([1]; first compound 8 µM): 0.236
- relative viability ([2]; first compound 0.08 µM): 0.774
- relative viability ([2]; first compound 0.253 µM): 0.801
- relative viability ([2]; first compound 0.8 µM): 0.766
- relative viability ([2]; first compound 2.53 µM): 0.791
- relative viability ([2]; first compound 8 µM): 0.724
- relative viability ([3]; first compound 0.08 µM): 0.489
- relative viability ([3]; first compound 0.253 µM): 0.528
- relative viability ([3]; first compound 0.8 µM): 0.481
- relative viability ([3]; first compound 2.53 µM): 0.5
- relative viability ([3]; first compound 8 µM): 0.511
- relative viability ([4]; first compound 0.08 µM): 0.378
- relative viability ([4]; first compound 0.253 µM): 0.352
- relative viability ([4]; first compound 0.8 µM): 0.284
- relative viability ([4]; first compound 2.53 µM): 0.298
- relative viability ([4]; first compound 8 µM): 0.286

Cell Line: NCI-H1793
- relative viability ([1]; first compound 0.08 µM): 0.19
- relative viability ([1]; first compound 0.253 µM): 0.249
- relative viability ([1]; first compound 2.53 µM): 0.165
- relative viability ([1]; first compound 8 µM): 0.113
- relative viability ([2]; first compound 0.08 µM): 0.79
- relative viability ([2]; first compound 0.253 µM): 0.665
- relative viability ([2]; first compound 0.8 µM): 0.569
- relative viability ([2]; first compound 2.53 µM): 0.823
- relative viability ([2]; first compound 8 µM): 0.891
- relative viability ([3]; first compound 0.08 µM): 0.53
- relative viability ([3]; first compound 0.253 µM): 0.509
- relative viability ([3]; first compound 0.8 µM): 0.52
- relative viability ([3]; first compound 2.53 µM): 0.49
- relative viability ([3]; first compound 8 µM): 0.644
- relative viability ([4]; first compound 0.08 µM): 0.924
- relative viability ([4]; first compound 0.253 µM): 0.774
- relative viability ([4]; first compound 0.8 µM): 0.678
- relative viability ([4]; first compound 2.53 µM): 0.95
- relative viability ([4]; first compound 8 µM): 0.758

Cell Line: NCI-H2405
- relative viability ([1]; first compound 0.08 µM): 0.992
- relative viability ([1]; first compound 0.253 µM): 0.652
- relative viability ([1]; first compound 0.8 µM): 0.681
- relative viability ([1]; first compound 2.53 µM): 0.614
- relative viability ([1]; first compound 8 µM): 0.552
- relative viability ([2]; first compound 0.08 µM): 1.06
- relative viability ([2]; first compound 0.253 µM): 1.09
- relative viability ([2]; first compound 0.8 µM): 1.15
- relative viability ([2]; first compound 2.53 µM): 0.999
- relative viability ([2]; first compound 8 µM): 0.963
- relative viability ([3]; first compound 0.08 µM): 0.78
- relative viability ([3]; first compound 0.253 µM): 0.77
- relative viability ([3]; first compound 0.8 µM): 0.758
- relative viability ([3]; first compound 2.53 µM): 0.67
- relative viability ([3]; first compound 8 µM): 0.696
- relative viability ([4]; first compound 0.08 µM): 0.888
- relative viability ([4]; first compound 0.253 µM): 0.896
- relative viability ([4]; first compound 0.8 µM): 0.935
- relative viability ([4]; first compound 2.53 µM): 0.753
- relative viability ([4]; first compound 8 µM): 0.757

Cell Line: HCC-15
- relative viability ([1]; first compound 0.08 µM): 0.304
- relative viability ([1]; first compound 0.253 µM): 0.205
- relative viability ([1]; first compound 0.8 µM): 0.181
- relative viability ([1]; first compound 2.53 µM): 0.278
- relative viability ([1]; first compound 8 µM): 0.279
- relative viability ([2]; first compound 0.08 µM): 0.891
- relative viability ([2]; first compound 0.253 µM): 0.821
- relative viability ([2]; first compound 0.8 µM): 0.947
- relative viability ([2]; first compound 2.53 µM): 0.776
- relative viability ([2]; first compound 8 µM): 0.924
- relative viability ([3]; first compound 0.08 µM): 0.707
- relative viability ([3]; first compound 0.253 µM): 0.636
- relative viability ([3]; first compound 0.8 µM): 0.784
- relative viability ([3]; first compound 2.53 µM): 0.63
- relative viability ([3]; first compound 8 µM): 0.617
- relative viability ([4]; first compound 0.08 µM): 0.681
- relative viability ([4]; first compound 0.253 µM): 0.737
- relative viability ([4]; first compound 0.8 µM): 0.798
- relative viability ([4]; first compound 2.53 µM): 0.561
- relative viability ([4]; first compound 8 µM): 0.785

Cell Line: NCI-H1975
- relative viability ([1]; first compound 0.08 µM): 0.22
- relative viability ([1]; first compound 0.253 µM): 0.197
- relative viability ([1]; first compound 0.8 µM): 0.0911
- relative viability ([1]; first compound 2.53 µM): 0.324
- relative viability ([1]; first compound 8 µM): 0.161
- relative viability ([2]; first compound 0.08 µM): 0.948
- relative viability ([2]; first compound 0.253 µM): 0.81
- relative viability ([2]; first compound 0.8 µM): 0.835
- relative viability ([2]; first compound 2.53 µM): 0.742
- relative viability ([2]; first compound 8 µM): 0.951
- relative viability ([3]; first compound 0.08 µM): 0.45
- relative viability ([3]; first compound 0.253 µM): 0.409
- relative viability ([3]; first compound 0.8 µM): 0.368
- relative viability ([3]; first compound 2.53 µM): 0.397
- relative viability ([3]; first compound 8 µM): 0.381
- relative viability ([4]; first compound 0.08 µM): 0.773
- relative viability ([4]; first compound 0.253 µM): 0.829
- relative viability ([4]; first compound 0.8 µM): 0.815
- relative viability ([4]; first compound 2.53 µM): 0.755
- relative viability ([4]; first compound 8 µM): 0.754

Cell Line: NCI-H1755
- relative viability ([1]; first compound 0.08 µM): 0.472
- relative viability ([1]; first compound 0.253 µM): 0.413
- relative viability ([1]; first compound 0.8 µM): 0.422
- relative viability ([1]; first compound 2.53 µM): 0.351
- relative viability ([1]; first compound 8 µM): 0.454
- relative viability ([2]; first compound 0.08 µM): 1.09
- relative viability ([2]; first compound 0.253 µM): 0.98
- relative viability ([2]; first compound 0.8 µM): 1.02
- relative viability ([2]; first compound 2.53 µM): 0.935
- relative viability ([2]; first compound 8 µM): 1.07
- relative viability ([3]; first compound 0.08 µM): 0.674
- relative viability ([3]; first compound 0.253 µM): 0.706
- relative viability ([3]; first compound 0.8 µM): 0.63
- relative viability ([3]; first compound 2.53 µM): 0.689
- relative viability ([3]; first compound 8 µM): 0.719
- relative viability ([4]; first compound 0.08 µM): 0.835
- relative viability ([4]; first compound 0.253 µM): 0.898
- relative viability ([4]; first compound 0.8 µM): 0.923
- relative viability ([4]; first compound 2.53 µM): 0.825
- relative viability ([4]; first compound 8 µM): 0.794

Cell Line: NCI-H2342
- relative viability ([1]; first compound 0.08 µM): 0.775
- relative viability ([1]; first compound 0.253 µM): 0.597
- relative viability ([1]; first compound 0.8 µM): 0.71
- relative viability ([1]; first compound 2.53 µM): 0.771
- relative viability ([1]; first compound 8 µM): 0.871
- relative viability ([3]; first compound 0.08 µM): 0.728
- relative viability ([3]; first compound 0.253 µM): 0.74
- relative viability ([3]; first compound 0.8 µM): 0.817
- relative viability ([3]; first compound 2.53 µM): 0.798
- relative viability ([3]; first compound 8 µM): 0.848
- relative viability ([4]; first compound 0.08 µM): 0.453
- relative viability ([4]; first compound 0.253 µM): 0.454
- relative viability ([4]; first compound 0.8 µM): 0.506
- relative viability ([4]; first compound 2.53 µM): 0.476
- relative viability ([4]; first compound 8 µM): 0.561

Cell Line: COR-L 105
- relative viability ([1]; first compound 0.08 µM): 0.865
- relative viability ([1]; first compound 0.253 µM): 0.688
- relative viability ([1]; first compound 0.8 µM): 0.567
- relative viability ([1]; first compound 2.53 µM): 1.23
- relative viability ([1]; first compound 8 µM): 0.622
- relative viability ([2]; first compound 0.08 µM): 0.384
- relative viability ([2]; first compound 0.253 µM): 0.406
- relative viability ([2]; first compound 0.8 µM): 0.318
- relative viability ([2]; first compound 2.53 µM): 0.357
- relative viability ([2]; first compound 8 µM): 0.349
- relative viability ([3]; first compound 0.08 µM): 1.12
- relative viability ([3]; first compound 0.253 µM): 0.621
- relative viability ([3]; first compound 0.8 µM): 0.635
- relative viability ([3]; first compound 2.53 µM): 0.667
- relative viability ([3]; first compound 8 µM): 0.628
- relative viability ([4]; first compound 0.08 µM): 0.909
- relative viability ([4]; first compound 0.253 µM): 0.732
- relative viability ([4]; first compound 0.8 µM): 0.675
- relative viability ([4]; first compound 2.53 µM): 0.612
- relative viability ([4]; first compound 8 µM): 0.75
